Test [1] addresses T1, flTau aggregates (longest isoform of human Tau, 2N4R) (Homo sapiens, UniProt P10636).
T1 construct: 35 μM of recombinant full-length (fl) Tau in phosphate-buffered saline (PBS) were aggregated; purchased Biotechne; host or cells: bacteria
The test is described as follows: Full-length Tau (flTau) disaggregation assay by Thioflavin T (ThT). Format: biochemical. The following applies: ThT fluorescence; 60 nM flTau aggregates, 30 minutes at RT; read-out: flTau disaggregation EC50. The protocol:
Full-Length Tau (flTau) Disaggregation Assay by Thioflavin T (ThT)
The longest isoform of human Tau (2N4R; 441 amino acids) was expressed in bacteria and purified (Biotechne). For the Tau disaggregation assay by ThT, 35 μM of recombinant full-length (fl) Tau in phosphate-buffered saline (PBS) were aggregated for 72 hours at 37° C. in presence of 35 μM of heparin (Sigma-Aldrich) and 10 mM of […] (Sigma-Aldrich) under shaking at 1000 RPM. Compound 1 was dissolved in anhydrous dimethyl sulfoxide (DMSO, Sigma-Aldrich) to reach a concentration of 2.5 mM. flTau aggregates and serial dilutions of compound 1 were mixed together in PBS (volume 50 μL) to a final concentration of 60 nM of flTau aggregates and from 20 to 0.0012 μM of Compound 1. The mixture was incubated for 30 minutes at room temperature (RT), then 40 μL of this mixture were transferred into a black 384-well plate assay (Perkin-Elmer) and mixed with 10 μL of 20 μM ThT in 250 mM glycine (both from Sigma-Aldrich) in PBS. Fluorescence (relative fluorescence units; RFU) was measured in monoplicate or duplicate on a Tecan reader (excitation: 440 nm; emission: 485 nm). Percentage of flTau disaggregation was then calculated and the half maximal effective concentration (EC50) was determined using GraphPad Prism version 8 (GraphPad Software) assuming a one-binding site fitting model, see Table 3 and Table 4.

In test [2] the target is T2, Tau K18 fragment aggregates (amino acids 244 to 372 of human Tau441) (Homo sapiens, UniProt P10636).
T2 construct: encompassing amino acids 244 to 372 of the longest isoform (2N4R) of human Tau441; purchased Biotechne; host or cells: bacteria
T2 sequence (P10636 561-689): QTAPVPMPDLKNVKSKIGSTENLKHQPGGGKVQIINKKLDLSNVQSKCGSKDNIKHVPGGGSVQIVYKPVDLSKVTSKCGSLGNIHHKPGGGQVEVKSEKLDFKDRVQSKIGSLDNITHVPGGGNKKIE
The test can be described thus: Tau K18 disaggregation assay by ThT. To be noted: ThT fluorescence; 2 μM K18 aggregates, 30 minutes at RT. Format: biochemical. The protocol:
Tau K18 Disaggregation Assay by ThT
The Tau K18 fragment, encompassing amino acids 244 to 372 of the longest isoform (2N4R) of human Tau441, was expressed in bacteria and purified (Biotechne). For the K18 disaggregation assay by ThT, 35 μM of recombinant K18 in PBS were aggregated for 24 hours at 37° C. in presence of 25 μM of heparin (Sigma-Aldrich) and 10 mM of 1,4-Dithiothreito (DTT from Sigma-Aldrich) under shaking at 750 RPM. Compound 1 was dissolved in anhydrous dimethyl sulfoxide (DMSO, Sigma-Aldrich) to reach a concentration of 10 mM. K18 aggregates and serial dilutions of compounds were mixed together in PBS (volume 50 μL) to a final concentration of 2 μM of K18 aggregates and from 400 to 0.1 μM of Compound 1. The mixture was incubated for 30 minutes at room temperature (RT), then 40 μL of this mixture were transferred into a black 384-well plate assay (Perkin-Elmer) and mixed with 10 μL of 100 μM ThT in 250 mM glycine (both from Sigma-Aldrich) in PBS. Fluorescence (relative fluorescence units; RFU) was measured in monoplicate or duplicate on a Tecan reader (excitation: 440 nm; emission: 485 nm). Percentage of K18 disaggregation was then calculated and half maximal effective concentration (EC50) was determined using GraphPad Prism version 8 (GraphPad Software) assuming a one-binding site fitting model, see Table 3 and Table 4.

Where a name gives a salt, the structure may show the parent alone.

This passage reports EC50 results from US20230391774A1, “Novel Compounds” (AC Immune SA, priority 2020, published 2023).

T1 sequence (P10636 1-441 isoform P10636-8): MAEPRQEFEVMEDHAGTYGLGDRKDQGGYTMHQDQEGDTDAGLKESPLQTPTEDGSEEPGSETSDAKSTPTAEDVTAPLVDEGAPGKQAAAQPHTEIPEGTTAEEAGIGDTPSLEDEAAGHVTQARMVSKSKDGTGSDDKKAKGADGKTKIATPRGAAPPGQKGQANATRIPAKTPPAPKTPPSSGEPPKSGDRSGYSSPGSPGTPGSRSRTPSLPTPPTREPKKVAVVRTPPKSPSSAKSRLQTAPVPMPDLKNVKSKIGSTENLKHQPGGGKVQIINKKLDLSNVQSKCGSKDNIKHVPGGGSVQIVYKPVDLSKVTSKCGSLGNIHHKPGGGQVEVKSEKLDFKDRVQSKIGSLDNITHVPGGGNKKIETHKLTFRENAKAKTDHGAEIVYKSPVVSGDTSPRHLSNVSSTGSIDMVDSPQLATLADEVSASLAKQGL

A word on the EC50: it is the concentration needed to bring the measured effect to its halfway point. As to `O=C(Nc1c[nH]c2ccccc12)c1ccc2oc(N3CCOCC3)nc2c1` [Example 7, N-(1H-indol-3-yl)-2-morpholinobenzo[d]oxazole-5-carboxamide], the EC50 in test [1] and in test [2] was below 1 µM in each case. As to `c1ccc2c(-c3cnn(-c4ccc5oc(N6CCOCC6)nc5c4)c3)c[nH]c2c1` [Example 9, 5-(4-(1H-indol-3-yl)-1H-pyrazol-1-yl)-2-morpholinobenzo[d]oxazole], the EC50 in test [1] and in test [2] was below 1 µM in each case.

Consider `O=C(Nc1ccc2nc(N3CCOCC3)sc2c1)c1c[nH]c2ccc(F)cc12` [Example 17, 5-fluoro-N-(2-morpholinobenzo[d]thiazol-6-yl)-1H-indole-3-carboxamide], for which the values for the EC50 in test [1] and in test [2] were below 1 µM and 1 to 10 µM, respectively. As to `c1ccc2c(C3CCN(c4ccc5oc(N6CCOCC6)nc5c4)CC3)c[nH]c2c1` [Example 19, 5-(4-(1H-indol-3-yl)piperidin-1-yl)-2-morpholinobenzo[d]oxazole], the EC50 in test [1] and in test [2] was 1 to 10 µM throughout. In the case of `c1cnc2[nH]cc(C3CCN(c4ccc5oc(N6CCOCC6)nc5c4)CC3)c2c1` [Example 20, 5-(4-(1H-pyrrolo[2,3-b]pyridin-3-yl)piperidin-1-yl)-2-morpholinobenzo[d]oxazole], the EC50 in test [1] was below 1 µM; in test [2], 1 to 10 µM.

In the case of `c1ccc2c(C3CCN(c4cc5sc(N6CCOCC6)nc5cn4)CC3)c[nH]c2c1` [Example 24, 4-(6-(4-(1H-indol-3-yl)piperidin-1-yl)thiazolo[4,5-c]pyridin-2-yl)morpholine], the concentration giving a half-maximal response (EC50) in test [1] and in test [2] was below 1 µM each time.

Regarding `Cn1cc(C2=CCN(c3ccc4oc(N5CCOCC5)nc4c3)CC2)c2cc(F)cnc21` [Example 32, 5-(4-(5-fluoro-1-methyl-1H-pyrrolo[2,3-b]pyridin-3-yl)-3,6-dihydropyridin-1(2H)-yl)-2-morpholinobenzo[d]oxazole], the EC50 in test [1] was below 1 µM; in test [2], 1 to 10 µM. The corresponding values for `Cn1cc(C2CCN(c3ccc4oc(N5CCOCC5)nc4c3)C2)c2cc(F)cnc21` (centres unmarked) [Example 33, 5-(3-(5-fluoro-1-methyl-1H-pyrrolo[2,3-b]pyridin-3-yl)pyrrolidin-1-yl)-2-morpholinobenzo[d]oxazole] are 1 to 10 µM and 1 to 10 µM.

For the compound `c1ccc2c(C3CCN(c4cc5sc(N6CCOCC6)nc5cn4)CC3)n[nH]c2c1` [Example 35, 4-(6-(4-(1H-indazol-3-yl)piperidin-1-yl)thiazolo[4,5-c]pyridin-2-yl)morpholine], the EC50 in test [1] and in test [2] was 1 to 10 µM in each case.

For `c1ccc2c(Nc3ccc4oc(N5CCOCC5)nc4c3)n[nH]c2c1` [Example 36, N-(1H-indazol-3-yl)-2-morpholinobenzo[d]oxazol-5-amine], the EC50 in test [1] lay within 1 to 10 µM; in test [2], 10 to 50 µM. The corresponding values for `c1ccc2c(C3CCN(c4ccc5oc(N6CCOCC6)nc5c4)C3)n[nH]c2c1` (centres unmarked) [Example 37, 5-(3-(1H-indazol-3-yl)pyrrolidin-1-yl)-2-morpholinobenzo[d]oxazole] are 1 to 10 µM and below 1 µM. Turning to `c1ccc2c(C3CCN(c4ccc5oc(N6CCOCC6)nc5c4)C3)n[nH]c2c1` (centres unmarked) [Example 38, 5-(3-(1H-indazol-3-yl)pyrrolidin-1-yl)-2-morpholinobenzo[d]oxazole], the concentration giving a half-maximal response (EC50) in test [1] and in test [2] was 1 to 10 µM throughout.

Compound `c1cc2c(C3CCN(c4ccc5oc(N6CCOCC6)nc5c4)CC3)c[nH]c2cn1` [Example 54, 5-(4-(1H-pyrrolo[2,3-c]pyridin-3-yl)piperidin-1-yl)-2-morpholinobenzo[d]oxazole] came in with an EC50 in test [2] of 10 to 50 µM. On the same count and under the same terms, in the case of `c1cc2[nH]cc(C3CCN(c4ccc5oc(N6CCOCC6)nc5c4)CC3)c2cn1` [Example 55, 5-(4-(1H-pyrrolo[3,2-c]pyridin-3-yl)piperidin-1-yl)-2-morpholinobenzo[d]oxazole] it was 1 to 10 µM; in that of `c1ccc2c(N3CCN(c4ccc5oc(N6CCOCC6)nc5c4)CC3)c[nH]c2c1` [Example 56, 5-(4-(1H-indol-3-yl)piperazin-1-yl)-2-morpholinobenzo[d]oxazole], 1 to 10 µM. Still for that read-out and setting: the figure for `Cn1cc(C2CCN(c3ccc4nc(N5CCOCC5)sc4n3)CC2)c2cc(F)cnc21` [Example 57, 4-(5-(4-(5-fluoro-1-methyl-1H-pyrrolo[2,3-b]pyridin-3-yl)piperidin-1-yl)thiazolo[5,4-b]pyridin-2-yl)morpholine] is 10 to 50 µM.

Turning to `c1ccc2c(C3CCN(c4cc5oc(N6CCOCC6)nc5cn4)CC3)c[nH]c2c1` [Example 58, 6-(4-(1H-indol-3-yl)piperidin-1-yl)-2-morpholinooxazolo[4,5-c]pyridine], the EC50 in test [2] is 10 to 50 µM. The same measure, in the same setting: the figure for `c1ccn2c(C3CCN(c4ccc5nc(N6CCOCC6)oc5c4)CC3)cnc2c1` [Example 59, 6-(4-(imidazo[1,2-a]pyridin-3-yl)piperidin-1-yl)-2-morpholinobenzo[d]oxazole] is 1 to 10 µM; for `c1ccc2c(C3CCN(c4ccc5sc(N6CCOCC6)nc5n4)CC3)n[nH]c2c1` [Example 62, 4-(5-(4-(1H-indazol-3-yl)piperidin-1-yl)thiazolo[4,5-b]pyridin-2-yl)morpholine] it is 1 to 10 µM; for `c1ccc2c(C3CCN(c4ccc5sc(N6CCOCC6)nc5c4)CC3)n[nH]c2c1` [Example 63, 4-(5-(4-(1H-indazol-3-yl)piperidin-1-yl)benzo[d]thiazol-2-yl)morpholine] it is 10 to 50 µM. The same measure, in the same setting: the figure for `c1ccc2c(C3CCN(c4ccc5nc(N6CCOCC6)oc5n4)CC3)n[nH]c2c1` [Example 64, 5-(4-(1H-indazol-3-yl)piperidin-1-yl)-2-morpholinooxazolo[5,4-b]pyridine] is 1 to 10 µM; for `c1ccc2c(C3CCN(c4cnc5sc(N6CCOCC6)nc5c4)CC3)c[nH]c2c1` [Example 65, 4-(6-(4-(1H-indol-3-yl)piperidin-1-yl)thiazolo[5,4-b]pyridin-2-yl)morpholine] it is 1 to 10 µM; for `c1ccc2c(C3CCN(c4cc5nc(N6CCOCC6)sc5cn4)CC3)n[nH]c2c1` [Example 66, 4-(6-(4-(1H-indazol-3-yl)piperidin-1-yl)thiazolo[5,4-c]pyridin-2-yl)morpholine] it is below 1 µM. For the compound `c1ccc2c(C3CCN(c4cc5nc(N6CCOCC6)sc5cn4)CC3)c[nH]c2c1` [Example 67, 4-(6-(4-(1H-indol-3-yl)piperidin-1-yl)thiazolo[5,4-c]pyridin-2-yl)morpholine], the EC50 in test [2] was below 1 µM. In turn, `Fc1ccc2[nH]cc(C3CCN(c4ccc5oc(N6CCOCC6)nc5c4)CC3)c2c1` [Example 69, 5-(4-(5-fluoro-1H-indol-3-yl)piperidin-1-yl)-2-morpholinobenzo[d]oxazole] registered an EC50 in test [2] of 1 to 10 µM. Still for that read-out and setting: in the case of `c1ccc2c(C3CCN(c4ccc5nc(N6CCOCC6)oc5n4)CC3)c[nH]c2c1` [Example 101, 5-(4-(1H-indol-3-yl)piperidin-1-yl)-2-morpholinooxazolo[5,4-b]pyridine] it was 10 to 50 µM; in that of `Fc1cnc2c(C3CCN(c4ccc5nc(N6CCOCC6)oc5c4)CC3)c[nH]c2c1` [Example 103, 6-(4-(6-fluoro-1H-pyrrolo[3,2-b]pyridin-3-yl)piperidin-1-yl)-2-morpholinobenzo[d]oxazole], 1 to 10 µM; in that of `c1ccc2c(C3CCN(c4ccc5nc(N6CCOCC6)sc5n4)CC3)c[nH]c2c1` [Example 108, 4-(5-(4-(1H-indol-3-yl)piperidin-1-yl)thiazolo[5,4-b]pyridin-2-yl)morpholine hydrochloride], 10 to 50 µM. Still for that read-out and setting: the figure for `Cn1cc(C2CC3CN(c4ccc5oc(N6CCOCC6)nc5c4)CC3C2)c2cc(F)cnc21` (centres unmarked) [Example 112, 5-(5-(5-fluoro-1-methyl-1H-pyrrolo[2,3-b]pyridin-3-yl)hexahydrocyclopenta[c]pyrrol-2(1H)-yl)-2-morpholinobenzo[d]oxazole hydrochloride] is 1 to 10 µM.
